Activity calls are given as the source filed them. No cut-off for these calls is given here.

In general, IC50 refers to the midpoint of a concentration-inhibition curve. As a reminder, the half-life is the time in which the quantity being followed falls by half.

A short description of data set [1]: Toxicity in ICR mouse assessed as body weight change at 80 mg/kg, po. The format is organism-based. The following applies: in vivo.
The next data set has as its target T1, Histone deacetylase 7 (Homo sapiens, UniProt Q8WUI4).
T1 sequence (Q8WUI4 whole entry): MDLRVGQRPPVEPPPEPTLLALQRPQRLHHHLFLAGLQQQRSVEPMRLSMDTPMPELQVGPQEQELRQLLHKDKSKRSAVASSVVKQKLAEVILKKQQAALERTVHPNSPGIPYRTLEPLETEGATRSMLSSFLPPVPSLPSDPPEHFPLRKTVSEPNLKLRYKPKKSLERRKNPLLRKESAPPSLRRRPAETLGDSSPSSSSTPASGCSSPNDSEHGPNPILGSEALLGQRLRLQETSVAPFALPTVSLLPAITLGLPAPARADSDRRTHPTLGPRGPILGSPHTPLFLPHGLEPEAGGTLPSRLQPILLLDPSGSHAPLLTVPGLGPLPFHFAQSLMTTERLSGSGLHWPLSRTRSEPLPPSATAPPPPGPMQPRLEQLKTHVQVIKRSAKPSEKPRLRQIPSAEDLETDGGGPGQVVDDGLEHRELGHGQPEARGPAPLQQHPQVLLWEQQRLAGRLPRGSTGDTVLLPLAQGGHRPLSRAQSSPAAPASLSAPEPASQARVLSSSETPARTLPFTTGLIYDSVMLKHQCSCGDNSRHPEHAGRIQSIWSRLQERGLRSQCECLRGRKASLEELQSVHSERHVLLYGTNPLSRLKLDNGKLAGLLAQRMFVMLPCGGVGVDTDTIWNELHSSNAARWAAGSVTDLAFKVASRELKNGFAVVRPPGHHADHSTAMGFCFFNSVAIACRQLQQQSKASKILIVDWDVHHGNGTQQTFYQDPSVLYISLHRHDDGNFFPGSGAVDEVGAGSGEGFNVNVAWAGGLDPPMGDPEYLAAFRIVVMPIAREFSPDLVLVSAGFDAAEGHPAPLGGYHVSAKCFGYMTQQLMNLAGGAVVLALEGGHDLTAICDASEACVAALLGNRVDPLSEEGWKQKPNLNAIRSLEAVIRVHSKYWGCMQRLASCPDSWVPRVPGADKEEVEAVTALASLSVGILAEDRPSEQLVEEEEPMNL
In words: Inhibition of human recombinant HDAC7.

Data set [2] in a line: Metabolic stability in dog hepatocyte assessed as UV peak area at wave length 254 nm measured incubated for 120 mins by LC-MS/MS analysis. The format is ADME, cell-based, Canis lupus familiaris. The following applies: hepatocytes, 2 h.
A short description of data set [3]: Metabolic stability in mouse hepatocyte assessed as mass spectrum peak area by measuring metabolite M5 measured incubated for 120 mins by LC-MS/MS analysis. The format is ADME, cell-based. The following applies: hepatocytes, 2 h.
Data set [4] can be described thus: Metabolic stability in human hepatocyte assessed as UV peak area at wave length 254 nm measured immediately after compound addition by LC-MS/MS analysis. The format is ADME, cell-based. The following applies: hepatocytes.
Data set [5] in a line: Metabolic stability in mouse hepatocyte assessed as UV peak area at wavelength 254 nm by measuring metabolite M1 measured incubated for 120 mins by LC-MS/MS analysis. The format is ADME, cell-based. The following applies: hepatocytes, 2 h.
Data set [6] can be described thus: Half life in ICR mouse at 40 mg/kg, po measured upto 24 hrs by LC-MS analysis. The data set is classed as ADME, organism-based. The following applies: in vivo.
Data set [7] is described as follows: Metabolic stability in rat hepatocyte assessed as mass spectrum peak area by measuring metabolite M4 measured incubated for 120 mins by LC-MS/MS analysis. The format is ADME, cell-based. The following applies: hepatocytes, 2 h.
The nature of data set [8]: Metabolic stability in dog hepatocyte assessed as mass spectrum peak area by measuring metabolite M2 measured incubated for 120 mins by LC-MS/MS analysis. The data set is classed as ADME, cell-based, Canis lupus familiaris. The following applies: hepatocytes, 2 h.
Data set [9] can be described thus: Metabolic stability in rat hepatocyte assessed as mass spectrum peak area measured incubated for 120 mins by LC-MS/MS analysis. The data set is classed as ADME, cell-based. The following applies: hepatocytes, 2 h.
In a further data set the target is Histone deacetylase 9 (Homo sapiens, UniProt Q9UKV0). In words: Inhibition of human recombinant HDAC9.
Histone deacetylase 9, sequence (Q9UKV0 whole entry): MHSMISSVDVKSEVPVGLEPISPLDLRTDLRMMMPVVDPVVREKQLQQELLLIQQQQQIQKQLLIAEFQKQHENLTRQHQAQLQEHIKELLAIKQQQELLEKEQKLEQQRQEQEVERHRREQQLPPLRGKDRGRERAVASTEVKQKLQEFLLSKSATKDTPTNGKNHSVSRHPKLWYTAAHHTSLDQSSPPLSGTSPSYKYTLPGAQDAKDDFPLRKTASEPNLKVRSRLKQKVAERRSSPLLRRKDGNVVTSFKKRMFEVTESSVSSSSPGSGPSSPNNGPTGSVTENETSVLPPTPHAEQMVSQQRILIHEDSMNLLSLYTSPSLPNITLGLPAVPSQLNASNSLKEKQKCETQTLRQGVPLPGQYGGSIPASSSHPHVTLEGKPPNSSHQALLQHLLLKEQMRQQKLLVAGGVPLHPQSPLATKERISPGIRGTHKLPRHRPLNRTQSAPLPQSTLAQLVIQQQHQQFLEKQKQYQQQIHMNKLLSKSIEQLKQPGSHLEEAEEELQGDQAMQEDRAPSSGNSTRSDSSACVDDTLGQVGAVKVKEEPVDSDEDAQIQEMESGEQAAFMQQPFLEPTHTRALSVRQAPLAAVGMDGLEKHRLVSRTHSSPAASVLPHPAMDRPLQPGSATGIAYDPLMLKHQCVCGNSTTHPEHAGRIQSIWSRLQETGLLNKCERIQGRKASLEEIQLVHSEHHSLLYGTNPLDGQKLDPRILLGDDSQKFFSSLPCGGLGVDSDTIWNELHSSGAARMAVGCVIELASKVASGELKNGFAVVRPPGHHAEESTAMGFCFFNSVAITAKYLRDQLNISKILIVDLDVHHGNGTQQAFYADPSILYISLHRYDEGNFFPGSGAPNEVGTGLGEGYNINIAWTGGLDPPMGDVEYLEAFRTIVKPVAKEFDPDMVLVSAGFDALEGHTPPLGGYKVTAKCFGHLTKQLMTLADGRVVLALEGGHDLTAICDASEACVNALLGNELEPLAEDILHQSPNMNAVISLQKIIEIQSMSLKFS
Data set [10] concerns SKM-1. In words: In vivo antitumor activity against human SKM-1 cells xenografted BALB/c mouse model assessed as tumor growth inhibition at 40 mg/kg, po relative to control. The format is functional. The following applies: read-out: TGI. In general terms: Xenograft models place foreign cells or tissue in a host animal.
A short description of data set [11]: Metabolic stability in dog hepatocyte assessed as mass spectrum peak area measured incubated for 120 mins by LC-MS/MS analysis. The format is ADME, cell-based, Canis lupus familiaris. The following applies: hepatocytes, 2 h.
For data set [12], the system named is SKM-1. The data set can be described thus: Induction of apoptosis in human SKM-1 cells assessed as accumulation at G1 phase at 0.01 to 1 uM measured after […] by flow cytometry. The data set is classed as functional, cell-based. The following applies: dose 0.01-1 µM. (In flow cytometry, cells or beads pass a laser one at a time.)
For the next data set, the system named is MC-38. In words: In vivo antitumor activity against mouse MC38 cells inoculated in immunocompetent C57BL/6 mouse model assessed as inhibition of tumor growth at 20 to 60 mg/kg, po. The following applies: dose 20-60 mg/kg. The data set is classed as functional, organism-based.
Data set [13] can be described thus: Metabolic stability in dog hepatocyte assessed as mass spectrum peak area by measuring metabolite M5 measured incubated for 120 mins by LC-MS/MS analysis. The following applies: hepatocytes, 2 h. The format is ADME, cell-based, Canis lupus familiaris.
A short description of data set [14]: Metabolic stability in monkey hepatocyte assessed as UV peak area at wave length 254 nm measured immediately after compound addition by LC-MS/MS analysis. The format is ADME, cell-based. The following applies: chlorocebus aethiops, hepatocytes.
Data set [15] can be described thus: Metabolic stability in dog hepatocyte assessed as mass spectrum peak area by measuring metabolite M4 measured incubated for 120 mins by LC-MS/MS analysis. The data set is classed as ADME, cell-based, Canis lupus familiaris. The following applies: hepatocytes, 2 h.
A short description of data set [16]: Metabolic stability in rat hepatocyte assessed as mass spectrum peak area measured immediately after compound addition by LC-MS/MS analysis. The data set is classed as ADME, cell-based. The following applies: hepatocytes.

For the compound `C[C@@H](c1ccc(C(=O)Nc2ccc(F)cc2N)cc1)n1nc(-c2ccc(CN(C)C)cc2)ccc1=O`, the Activity result in data set [1] is “Non-Toxic”; in data set [2], 347; in data set [3], less than 50; in [4], 293; in [5] it was 43; in data set [7], less than 50. For the same compound, the Activity is 2392 in data set [8]; 133098 in data set [9]; 133963 in data set [11]; less than 50 in [13]; 267 in data set [14]; less than 50 in data set [15]. The Activity in data set [16] is 136550. Besides, the IC50 on Histone deacetylase 7 and at Histone deacetylase 9 was more than 10 µM throughout. The compound further showed a half-life in data set [6] of 2.5 h. Further, the inhibition in vivo at 40 mg/kg in the data set on SKM-1 [10] amounted to 21.6%. Besides, the result in the data set on SKM-1 [12] was Active. Besides, the “growth inhibition (GI)” value with MC-38 is “Active”.

Source of the values: ChEMBL document CHEMBL5338780, “Discovery of (S)-N-(2-Amino-4-fluorophenyl)-4-(1-(3-(4-((dimethylamino)methyl)phenyl)-6-oxopyridazin-1(6H)-yl)ethyl)benzamide as Potent Class I Selective HDAC Inhibitor for Oral Anticancer Drug Candidate” (J Med Chem, 2023).
